Source: US12275731B2, “Azaindole inhibitors of wild-type and mutant forms of LRRK2” (DANA-FARBER CANCER INSTITUTE, INC., priority 2018, dated 2025)

Assays:
Experiment in all cases: KinomeScan profiling
Format in all cases: binding
[1] = molecular target: T1, EPHA1 (Homo sapiens, UniProt P21709); settings: EPHA1, 1 μM; read-out: % control
T1 sequence (P21709 26-976): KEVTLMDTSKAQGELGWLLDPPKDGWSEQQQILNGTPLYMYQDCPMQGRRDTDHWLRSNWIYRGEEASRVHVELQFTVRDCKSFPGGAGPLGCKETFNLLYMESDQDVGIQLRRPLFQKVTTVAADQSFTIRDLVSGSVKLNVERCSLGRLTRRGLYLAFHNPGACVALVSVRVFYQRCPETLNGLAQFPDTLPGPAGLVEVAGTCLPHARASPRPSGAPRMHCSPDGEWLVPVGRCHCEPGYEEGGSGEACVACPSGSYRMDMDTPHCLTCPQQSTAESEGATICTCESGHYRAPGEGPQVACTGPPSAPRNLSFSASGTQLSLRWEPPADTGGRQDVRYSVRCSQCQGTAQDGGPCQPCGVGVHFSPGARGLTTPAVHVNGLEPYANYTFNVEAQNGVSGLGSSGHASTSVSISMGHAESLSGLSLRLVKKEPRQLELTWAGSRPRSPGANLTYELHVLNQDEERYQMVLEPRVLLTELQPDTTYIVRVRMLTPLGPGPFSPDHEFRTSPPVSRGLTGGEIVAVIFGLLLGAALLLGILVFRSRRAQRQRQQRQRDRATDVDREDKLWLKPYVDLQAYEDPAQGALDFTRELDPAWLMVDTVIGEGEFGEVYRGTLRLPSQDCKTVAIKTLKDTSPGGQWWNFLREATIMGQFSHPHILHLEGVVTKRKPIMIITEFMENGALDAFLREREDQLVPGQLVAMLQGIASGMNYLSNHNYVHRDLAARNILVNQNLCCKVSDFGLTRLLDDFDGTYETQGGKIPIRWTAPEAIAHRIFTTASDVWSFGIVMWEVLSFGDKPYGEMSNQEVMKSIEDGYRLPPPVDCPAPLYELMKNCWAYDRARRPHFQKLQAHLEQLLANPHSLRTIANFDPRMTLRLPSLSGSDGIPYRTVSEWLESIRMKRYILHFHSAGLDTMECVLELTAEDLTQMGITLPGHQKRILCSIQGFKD
Experimental: (§1) The kinase selectivity of inventive compounds 77, 96 and 101 was evaluated by KinomeScan®. KinomeScan® analysis was performed against a near comprehensive panel of 468 kinases. The control percentage (% control) for inventive compounds at 1 μM in DMSO was determined by Equation 1: % control=(inventive compound−positive control)/(negative control−positive control)×100%, Equation 1
(§2) wherein the positive control is a compound with a % control value of 0% relative light units (RLU), and the negative control (i.e., DMSO) has % control value of 100% RLU. The enzyme selectivity in the present invention is defined as follows: inventive compounds are considered active for an enzyme when the observed % control is less than 35% (<35%).

[2] = molecular target: T2, EPHB4 (Homo sapiens, UniProt P54760); settings: EPHB4, 1 μM; read-out: % control
T2 sequence (P54760 16-987): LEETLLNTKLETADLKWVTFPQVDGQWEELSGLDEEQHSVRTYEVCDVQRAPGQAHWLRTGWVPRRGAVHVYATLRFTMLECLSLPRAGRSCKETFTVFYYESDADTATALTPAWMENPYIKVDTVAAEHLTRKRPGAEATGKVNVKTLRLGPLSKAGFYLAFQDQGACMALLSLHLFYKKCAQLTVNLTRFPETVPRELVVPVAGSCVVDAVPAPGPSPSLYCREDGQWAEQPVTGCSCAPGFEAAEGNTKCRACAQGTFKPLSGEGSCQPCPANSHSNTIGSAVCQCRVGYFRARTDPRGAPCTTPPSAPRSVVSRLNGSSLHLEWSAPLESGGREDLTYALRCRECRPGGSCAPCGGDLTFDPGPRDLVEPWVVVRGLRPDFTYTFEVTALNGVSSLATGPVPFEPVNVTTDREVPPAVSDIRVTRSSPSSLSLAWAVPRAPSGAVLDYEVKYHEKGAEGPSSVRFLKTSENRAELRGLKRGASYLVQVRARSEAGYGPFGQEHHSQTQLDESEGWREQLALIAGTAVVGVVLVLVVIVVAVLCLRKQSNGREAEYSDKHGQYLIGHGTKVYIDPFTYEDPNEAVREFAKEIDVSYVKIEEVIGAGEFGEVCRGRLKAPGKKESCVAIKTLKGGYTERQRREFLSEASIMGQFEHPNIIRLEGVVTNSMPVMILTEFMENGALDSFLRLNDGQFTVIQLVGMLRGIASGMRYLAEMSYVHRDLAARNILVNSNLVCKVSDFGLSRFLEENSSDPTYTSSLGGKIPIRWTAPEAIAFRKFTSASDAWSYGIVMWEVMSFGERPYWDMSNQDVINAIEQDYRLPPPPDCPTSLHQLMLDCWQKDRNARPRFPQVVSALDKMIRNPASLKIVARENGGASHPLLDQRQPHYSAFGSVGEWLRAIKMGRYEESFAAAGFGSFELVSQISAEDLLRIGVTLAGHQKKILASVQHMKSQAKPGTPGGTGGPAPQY
Experimental: as §1, §2

[3] = molecular target: PRKCQ (Homo sapiens, UniProt Q04759); settings: read-out: % control
Experimental: as §1, §2

Sequence of PRKCQ (Q04759 whole entry): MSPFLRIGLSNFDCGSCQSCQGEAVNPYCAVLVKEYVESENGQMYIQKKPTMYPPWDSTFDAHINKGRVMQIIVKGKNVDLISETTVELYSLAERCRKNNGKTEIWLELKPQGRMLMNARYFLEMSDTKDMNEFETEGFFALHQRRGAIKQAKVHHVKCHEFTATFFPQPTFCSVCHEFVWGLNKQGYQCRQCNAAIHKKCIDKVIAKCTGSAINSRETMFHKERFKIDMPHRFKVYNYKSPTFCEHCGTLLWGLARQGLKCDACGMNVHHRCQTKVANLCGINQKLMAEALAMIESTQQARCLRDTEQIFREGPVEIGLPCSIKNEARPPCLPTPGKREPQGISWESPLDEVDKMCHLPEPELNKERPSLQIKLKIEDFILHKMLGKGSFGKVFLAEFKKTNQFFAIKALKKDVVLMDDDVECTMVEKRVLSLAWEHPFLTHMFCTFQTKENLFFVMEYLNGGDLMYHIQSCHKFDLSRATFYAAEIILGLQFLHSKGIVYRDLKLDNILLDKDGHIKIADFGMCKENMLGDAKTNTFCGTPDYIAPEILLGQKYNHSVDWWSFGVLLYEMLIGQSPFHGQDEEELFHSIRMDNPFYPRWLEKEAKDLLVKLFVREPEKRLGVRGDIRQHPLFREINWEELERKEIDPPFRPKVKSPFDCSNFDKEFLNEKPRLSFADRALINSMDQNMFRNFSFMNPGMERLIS

| Structure (SMILES) | remaining binding at 1 µM [1] | remaining binding at 1 µM [2] | remaining binding at 1 µM [3] |
| --- | --- | --- | --- |
| CNc1c(-c2ccc(C(=O)N3CCC(N4CCOCC4)CC3)cc2)cnc2[nH]cc(Cl)c12 [Compound 96, (4-(3-chloro-4-(methylamino)-1H-pyrrolo[2,3-b]pyridin-5-yl)phenyl)(4-morpholinopiperidin-1-yl)methanone] | 81% | 100% | 76% |
| O=C(c1ccc(-c2cnc3[nH]cc(Cl)c3c2NC2CCCC2)cc1)N1CCC(N2CCOCC2)CC1 [Compound 101, (4-(3-chloro-4-(cyclopentylamino)-1H-pyrrolo[2,3-b]pyridin-5-yl)phenyl)(4-morpholinopiperidin-1-yl)methanone] | 76% | 62% | 45% |
| CNc1c(-c2cnn([C@H]3CCN(C(C)=O)C[C@@H]3F)c2)cnc2[nH]cc(Cl)c12 [Compound 77, 1-((3S,4S)-4-(4-(3-chloro-4-(methylamino)-1H-pyrrolo[2,3-b]pyridin-5-yl)-1H-pyrazol-1-yl)-3-fluoropiperidin-1-yl)ethan-1-one] | 83% | 100% | 91% |
